Experiment: Human HepG2 cell viability assay in 384 well format
Type: toxicity, cell-based
Parameters: dose 125 nL, time 70.5 hour; cytotoxicity at 70.5 h: concentration not given beside the values
Details: HepG2 cells, read-out: Inhibition

| SMILES | cytotoxicity at 70.5 h [%] |
| --- | --- |
| O=C(NC[C@]1(O)CN(Cc2ccccc2F)C[C@H]1O)c1ccccn1 | -62.9 |
| CCOc1ccc(N(CCC#N)C(=O)c2ccc(SC)nc2)cc1 | -4 |
| COCC(=O)Nc1ccnn1-c1ccc(Cl)cc1 | 3.64 |
| COc1ncc(-c2ccc(NC(C)=O)cc2)c(OC)n1 | -11 |
| CCn1ccc2cc(NC(=O)CC3CCCO3)ccc21 (stereo not drawn) | -6.31 |
| CS(=O)(=O)NCc1nnc2n1CCN(Cc1ccncc1)C2 | 20.1 |
| COc1ccc(OC2CCN(C(=O)c3ccc(C(C)=O)s3)CC2)cc1 | -6.92 |
| CN(C)CC(=O)N1CCC2(CC1)COCCN(c1ncccn1)C2 | 22.5 |
| CN(CCc1cn[nH]c1)Cc1nc(Cc2cccc(F)c2)no1 | 19 |
| O=C(Nc1ccccc1)N1C[C@@H]2OCCN(C(=O)c3ccco3)[C@@H]2C1 | -0.595 |
| CC(C)Cc1cc(C(=O)N2CCC(Cc3cnn(C)c3)C2)cc(O)n1 (stereo not drawn) | -11.1 |
| CN(CC(=O)NC1(C#N)CCCC1)C1CCCN(c2cccnn2)C1 (stereo not drawn) | -1.63 |
| Cc1nn(C)c2c(NCc3ccccc3F)nc(C3CC3)nc12 | -5.5 |
| COc1ccc(OCc2nccc(-c3cc(C(=O)O)ccn3)n2)cc1 | -2.16 |
| Cc1cc(N2CCOCC2)ccc1NC(C)c1nc(C(C)(C)C)no1 (stereo not drawn) | -6.63 |
| COCc1cc(N(C)CCC(O)c2ccccc2)n2nccc2n1 (stereo not drawn) | -7.44 |
| COc1ccc(C(C)=O)c(OCC(=O)NC(C)c2ccc(F)cc2)c1 (stereo not drawn) | -14.9 |
| CC(C)n1ccnc1C1CCN(C(=O)N2CCCC2)CC1 | -9.54 |
| CC(Cc1cn(CCc2nc(N)cc(O)n2)nn1)c1ccccc1 (stereo not drawn) | -11.4 |
| Cc1ccc(CN2CC3(CCNCC3)CCC2=O)c(F)c1F | -0.751 |
| CCC(C)NC(=O)c1ccc(NC(=O)CCc2ccncc2)c(C)c1 (stereo not drawn) | -3.96 |
| CSc1ccccc1C(C(=O)O)N1CCN(Cc2ccccn2)CC1 (stereo not drawn) | 17 |
| Cc1nc(S(=O)(=O)N2CCc3[nH]nc(CCC(C)C)c3C2)cn1C | -6.22 |

| SMILES | cytotoxicity at 70.5 h [%] |
| --- | --- |
| O=C(c1ccco1)N1CC[C@H]2[C@H]1CCN2S(=O)(=O)C1CC1 | -8.4 |
| CC(C)(C)NC(=O)C[C@@H]1CCNC[C@@H]1Cc1cc(C(C)(C)C)on1 | -1.48 |
| CCc1nnc2ccc(NCC3(N4CCCCC4)CCOCC3)nn12 | -7.09 |
| O=C(CN1CCOc2ccccc2C1)NCc1cc2n(n1)CCNC2 | -2.02 |
| O=C(NCC(=O)N1CCc2ccccc2C1)c1cnccn1 | -6.74 |
| COC(=O)[C@H]1CCCCN1C(=O)c1cccc(-n2cccn2)c1 | -4.76 |
| CC(C)CC(NC(=O)c1cnn(C)c1)C(=O)Nc1cc[nH]n1 (stereo not drawn) | 0.0249 |
| CC(C)NC(=O)N(C)C(c1cccc(F)c1)c1ccccn1 (stereo not drawn) | -7.96 |
| O=C1COc2cc(C(=O)N3CCCC(n4cccn4)C3)ccc2N1 (stereo not drawn) | -1.96 |
| CC(=O)N1CCN(C(=O)Nc2ccccc2Cl)[C@H]2CS(=O)(=O)C[C@H]21 | -16 |
| Cn1cc(CN2C[C@H]3CCC[C@@]3(COc3cccnc3)C2)cn1 | -2.32 |
| c1cnc(-c2nn3c(CN4CCCCCC4)nnc3s2)cn1 | -8.05 |
| CC(C)C(=O)NC1CCCN(C(=O)c2ccccc2O)C1 (stereo not drawn) | -7.34 |
| O=C(NCc1ccccc1CN1CCOCC1)c1ccc(Br)cc1F | 2.01 |
| CCC(C)N(Cc1ccsc1)C(=O)c1ccc(CO)cc1 (stereo not drawn) | -0.23 |
| CCN(CC)Cc1cn2c(n1)CN(C(=O)c1cnccn1)CC2 | -13.4 |
| CC(C)C(O)CNC(=O)CCCc1ccccn1 (stereo not drawn) | 2.25 |
| COc1ccc(CNc2cccnc2-n2cccn2)cc1OC | -14.2 |
| CN(CC1(CO)CCC1)C(=O)C1CCC(=O)N(Cc2ccc(Cl)cc2)C1 (stereo not drawn) | -1.24 |
| Cn1cc(C(=O)N2CCCC(c3cnccn3)C2)cn1 (stereo not drawn) | -4.7 |
| COc1ccc(Cl)cc1CN(C)C(=O)CN1C(=O)OC[C@@H]1C(C)C | -6.97 |
| O=C(NCC1CCCCC1)N1C[C@H]2C[C@H](C(=O)N3CCCC3)[C@@H](C1)O2 | -1.84 |
| Cc1ncc2c(n1)CN(CC(O)COc1ccc(C#N)cc1)CC2 (stereo not drawn) | -3.74 |

| SMILES | cytotoxicity at 70.5 h [%] |
| --- | --- |
| O=C(Cc1ccsc1)N1CCCCC1c1ccn2ccnc2n1 (stereo not drawn) | 8.15 |
| CCc1nccn1C1CCCN(C(=O)c2cnc3onc(C)c3c2)C1 (stereo not drawn) | -2.35 |
| CN(C(=O)Cc1ccc2c(c1)OCCO2)C1CCCCC1 | -1.71 |
| Cc1ccc(-c2ccccc2CC2(C(=O)NC(C)C)CCCNC2)cc1 (stereo not drawn) | -3.27 |
| O=C(Cc1ccccc1)NCc1ncc(-c2ccccc2C(=O)O)cn1 | -4.73 |
| Cc1noc(Cl)c1CCC(=O)N1CCN(c2ncccn2)CC1 | -7.01 |
| COc1cccc(-c2n[nH]cc2-c2nc(CN3CCCC3)no2)c1 | 1.58 |
| CC(C)CN1C(=O)CO[C@@H]2CNC[C@H]21 | -10.3 |
| CCN1C[C@H]2CCN(C(=O)NC3CCCC3)CC[C@H]2S1(=O)=O | 12.8 |
| O=C(NC[C@]1(O)CN(Cc2ccccc2F)C[C@H]1O)c1cscn1 | -8.78 |
| CCc1ncc(CN2CCN(c3cc(NC4CC4)nc(N)n3)CC2)cn1 | -15 |
| O=C(CCc1cccnc1)Nc1ccc(OCC2CCOCC2)cc1 | -10.4 |
| CNC(=O)C1CN(C(=O)c2cccs2)CCN(S(C)(=O)=O)C1 (stereo not drawn) | -2.89 |
| O=c1c(NCCNCCO)c(N2CCN(c3ccccc3)CC2)c1=O | -6.86 |
| Cc1c(S(=O)(=O)N2CCOCC2)cc2c(C)cc(=O)n3c2c1CCC3 | 0.511 |
| CNC(=O)c1ccc(=O)n(Cc2csc(N(C)C(C)=O)n2)c1 | -2.61 |
| O=C(O)c1nnn(Cc2cccc(C(F)(F)F)c2)c1-c1cccnc1 | -30.6 |
| CC(C)c1nnc2n1CCN(Cc1nc(-c3ccoc3)no1)C2 | 16.7 |
| O=C(CCCNC(=O)C1CC1)Nc1cnn(-c2ccccc2Cl)c1 | -1.38 |
| O=C(O)C1CN(c2cncc(Cc3ccccc3F)n2)C1 | -6.79 |
| CC(C(=O)N1CCCCCC1)N1CCN(Cc2nccn2C)CC1 (stereo not drawn) | -4.84 |
| COc1ccc2c(ccn2CCCN)c1 | -7.17 |
| Cn1ccc(C(=O)NCc2ccc(N3CCCCCC3)nc2)cc1=O | -12.5 |

| SMILES | cytotoxicity at 70.5 h [%] |
| --- | --- |
| CC(C)n1[nH]c(=O)c2c1NC(=O)CC2c1cccc(Br)c1 (stereo not drawn) | -12.9 |
| CCN(Cc1ccc2c(c1)OCO2)Cc1nc(C)no1 | -20.4 |
| COc1c(C)cnc(CN2CCC(N(C)S(C)(=O)=O)CC2)c1C | -16 |
| N#Cc1ccc(CN2CCN(c3ccncc3Cl)CC2=O)cc1 | -4.03 |
| CCS(=O)(=O)N1CCC(NC(=O)c2cc(C(C)C)ccc2O)CC1 | 1.02 |
| CN(C)c1ccc(C2CC(=O)Nc3c2cnn3Cc2ccco2)cc1 (stereo not drawn) | -7.08 |
| Cc1cccc(OCCC(=O)N(C)CCC#N)c1C | -8.74 |
| CCNC(=O)[C@@H]1C[C@@H](NC(=O)c2ccsc2)CN1CCCSC | -3.62 |
| CCNC(=O)C1(Cc2cc(-c3ccccc3)no2)CCCN(C)C1 (stereo not drawn) | -5.43 |
| COc1ccc(C(C)NCCc2ccc(NC(C)=O)cc2)cc1F (stereo not drawn) | -4.18 |
| CN(Cc1ccncn1)C(=O)C1(Oc2ccc(Cl)cc2)CCNCC1 | -4.8 |
| CNS(=O)(=O)c1ccc(CNC(=O)NCc2cc[nH]n2)cc1 | -12.9 |
| O=C(NCCOc1ncc(Cl)cc1Cl)c1ccoc1 | 21.7 |
| CC(C)(C)CCNc1nccc(-c2c[nH][nH]c2=O)n1 | -4.19 |
| COCCOc1ccc(NC(=O)N(CC2CCOC2)C2CC2)cn1 (stereo not drawn) | -2.98 |
| COC1CCCN(Cc2cc(O)c3cc(C)cc(C)c3n2)C1 (stereo not drawn) | -2.68 |
| CN(C)c1ccc(CNc2cncc(-n3cccn3)n2)cc1 | -4.47 |
| Cc1cnc(C)c(N2CCN(Cc3ccc(-c4cc[nH]n4)o3)CC2)n1 | -12.4 |
| Cc1cccnc1NCCNC(=O)C1CCN(Cc2ccco2)CC1 | 9.3 |
| Cc1ccc(C(=O)N2CCCn3nc(CCC(=O)O)cc3C2)cc1Cl | -2.03 |
| O=C(c1ccccc1OCC1CC1)N1CCCC(n2ccnc2)C1 (stereo not drawn) | -9.12 |
| COc1cccc(N2CCC(CNC(=O)CN3CSCC3=O)C2)c1 (stereo not drawn) | -9.99 |
| CN1CCc2[nH]cnc2C12CCN(C(=O)CCc1cccs1)CC2 | 16.8 |

| SMILES | cytotoxicity at 70.5 h [%] |
| --- | --- |
| CCc1nnc2n1CCN(CC(=O)Nc1cc(C(C)(C)C)nn1C)C2 | 0.0813 |
| CSc1ccc(C(=O)N2CC(=O)N(CC3CC3)CC(O)C2)cc1 (stereo not drawn) | 2.74 |
| Cc1nc2ccccn2c1CN1C[C@@H](CN(C)C)[C@@H](CO)C1 | -6.27 |
| Cc1cc(NCc2cc3n(n2)CCCN(C(=O)C2CCC2)C3)ncn1 | 0.388 |
| O=C(C(NCc1cccc(F)c1F)c1ccccc1)N1CCOCC1 (stereo not drawn) | -1.89 |
| O=C(c1ccoc1)N1CC[C@@H]2[C@H]1CCC(=O)N2c1ccccc1 | -7.05 |
| CCN(CCOC)C(=O)c1cc(COc2ccc3c(c2)CCCC3)on1 | -3.35 |
| Cc1cccc(OCCC(=O)N2CCCN(C(N)=O)CC2)c1C | 15.3 |
| c1cnc(N2CCC3(CN(CC4CCOC4)C3)C2)nc1 (stereo not drawn) | 24.1 |
| CCOCCC(=O)NCc1ccnc(NC2CC2)c1 | -3.85 |
| CCc1c(C)nc2n(c1=O)CC(C(=O)Nc1nc3c(s1)CCCC3)CS2 (stereo not drawn) | 12.5 |
| COC(=O)CCNC(=O)C1CC(=O)N(C2CCCC2)C1 (stereo not drawn) | 0.402 |
| COCCn1ccnc1CN(Cc1ccccn1)Cc1sccc1C | -7.84 |
| CCN1C(=O)CCC12CCN(S(=O)(=O)c1ccc(C#N)cc1)CC2 | 15.5 |
| CCn1ccnc1CN1C[C@@H](CN2CCCC2)[C@@H](CO)C1 | -0.818 |
| O=C(c1ccco1)N1CC(S(=O)(=O)c2ccc(Cl)cc2)C1 | -10.1 |
| Cc1ccc2c(n1)N(CCn1cccn1)CCN(C(=O)NC(C)C)C2 | 21.7 |
| Cc1cc(N2Cc3cnc(CC(C)C)nc3C2)nc(N)n1 | 0.669 |
| CC(c1ccon1)N(C)S(=O)(=O)NCc1ccccc1 (stereo not drawn) | -2.95 |
| Cc1cccnc1NC(=O)CNC(=O)c1ccccc1Cl | -14.5 |
| Cc1noc(C)c1CNC(=O)N1Cc2ccccc2N(C)CC1C (stereo not drawn) | 7.21 |

Reference: ChEMBL document CHEMBL3507680, “University of Dundee, Gates Library screen for HepG2 cell viability”
